Results taken from patent publication US11912693B2, “Compounds for modulating S1P1 activity and methods of using the same” (TREVENA, INC., priority 2017, dated 2024).

Assays:
[1] = molecular target: T1, human sphingosine-1-phosphate receptor 1 (S1P1) (Homo sapiens (Human), UniProt P21453); test: β-Arrestin2 recruitment assay (PathHunter), S1P1 CHO-K1 cells; type: cell-based; conditions: for Emax: CHO-K1, efficacy (SPAN) normalized to fingolimod, read-out: hS1P1 B-arrestin2 SPAN; for hS1P1 B-arrestin2 pEC50: β-arrestin2 recruitment, S1P1 CHO-K1 cells
Procedure, shortened: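 Enzyme-fragment complementation read-out: agonist-driven β-arrestin2 binding to ProLink-tagged human S1P1 in stable CHO-K1 cells restores β-galactosidase, measured 1 h at room temperature after a 60 min 37° C. compound incubation. Potency as pEC50, efficacy relative to fingolimod (SPAN).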
Target sequence in this assay (P21453 whole entry, looked up, the tested form may be a part): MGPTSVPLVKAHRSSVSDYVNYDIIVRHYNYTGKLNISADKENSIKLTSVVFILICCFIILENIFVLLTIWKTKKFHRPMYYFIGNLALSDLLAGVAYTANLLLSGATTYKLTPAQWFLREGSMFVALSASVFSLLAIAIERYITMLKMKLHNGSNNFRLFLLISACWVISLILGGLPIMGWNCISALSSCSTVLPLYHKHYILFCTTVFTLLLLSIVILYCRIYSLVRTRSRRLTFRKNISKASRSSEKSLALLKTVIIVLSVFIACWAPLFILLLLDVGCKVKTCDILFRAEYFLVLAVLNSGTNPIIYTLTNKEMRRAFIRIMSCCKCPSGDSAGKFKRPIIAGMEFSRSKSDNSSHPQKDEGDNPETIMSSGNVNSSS
Target sequence in this assay (P32121 whole entry partner, looked up, the tested form may be a part): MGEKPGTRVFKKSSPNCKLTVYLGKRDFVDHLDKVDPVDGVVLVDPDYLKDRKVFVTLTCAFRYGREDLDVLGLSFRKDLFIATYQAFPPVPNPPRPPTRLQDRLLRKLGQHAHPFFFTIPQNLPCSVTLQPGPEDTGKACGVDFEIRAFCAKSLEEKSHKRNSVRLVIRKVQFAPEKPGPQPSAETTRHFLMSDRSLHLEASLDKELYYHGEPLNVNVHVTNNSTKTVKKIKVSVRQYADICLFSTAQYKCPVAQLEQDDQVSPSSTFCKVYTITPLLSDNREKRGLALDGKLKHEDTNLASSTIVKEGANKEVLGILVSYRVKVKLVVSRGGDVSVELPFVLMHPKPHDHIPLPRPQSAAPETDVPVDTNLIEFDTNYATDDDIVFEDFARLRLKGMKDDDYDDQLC

[2] = molecular target: T1, human sphingosine-1-phosphate receptor 1 (S1P1); test: Inhibition of cAMP production (HTRF cAMP HiRange), S1P1 CHO-K1 cells; type: cell-based; conditions: for Emax: CHO-K1, efficacy (SPAN) normalized to fingolimod, read-out: hS1P1 cAMP SPAN; for hS1P1 cAMP pEC50: inhibition of cAMP production, S1P1 CHO-K1 cells
Procedure, shortened: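 CHO-K1 cells stably co-expressing human S1P1 (C-terminal Prolink tag) and EA-β-arrestin2 were grown in AssayComplete Media 6 at 37° C. and 5% CO2, plated, and incubated overnight. Agonist-driven inhibition of intracellular cAMP was read by TR-FRET with the HTRF cAMP HiRange kit on a PheraStar reader. Potency is pEC50, and efficacy (SPAN) is normalized to fingolimod.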
Target sequence in this assay (P21453 whole entry, looked up, the tested form may be a part): as the sequence (P21453 whole entry, looked up, the tested form may be a part) above

Compound	Emax [1] [%]	hS1P1 B-arrestin2 pEC50 [1]	Emax [2] [%]	hS1P1 cAMP pEC50 [2]
Cc1cncc(-c2nc(-c3ccc4c(c3)nnn4C(C)C)no2)n1 [Compound 229, 3-(1-isopropyl-1H-benzo[d][1,2,3]triazol-5-yl)-5-(6-methylpyrazin-2-yl)-1,2,4-oxadiazole]		>5		<6.5
CC(C)n1nnc2cc(-c3nc(-c4ccc(OCc5ccccc5)c(C(F)(F)F)c4)no3)ccc21 [Compound 296, 5-{3-[4-(benzyloxy)-3-(trifluoromethyl)phenyl]-1,2,4-oxadiazol-5-yl}-1-(propan-2-yl)-1H-1,2,3-benzotriazole]	< 75	<5	< 75	<6.5
CC(C)n1nnc2cc(-c3noc(-c4ccccc4OC(F)(F)F)n3)ccc21 [Compound 240, 3-(1-isopropyl-1H-benzo[d][1,2,3]triazol-5-yl)-5-(2-(trifluoromethoxy)phenyl)-1,2,4-oxadiazole]	> 75	<5	> 75	<6.5
Cc1ccc(-c2nc(-c3ccc4c(c3)nnn4C(C)C)no2)c(C)c1 [Compound 166, 5-(2,4-dimethylphenyl)-3-(1-isopropyl-1H-benzo[d][1,2,3]triazol-5-yl)-1,2,4-oxadiazole]		<5		<6.5
CC(C)n1nnc2cc(-c3nc(-c4ccc(OCc5ccccc5)cc4)no3)ccc21 [Compound 53, 5-{3-[4-(benzyloxy)phenyl]-1,2,4-oxadiazol-5-yl}-1-(propan-2-yl)-1H-1,2,3-benzotriazole]	< 75	<5	< 75	<6.5
COc1ccc(-c2noc(-c3ccc4c(c3)nnn4C3CCCC3)n2)cc1C(F)(F)F [Compound 197, 1-cyclopentyl-5-{3-[4-methoxy-3-(trifluoromethyl)phenyl]-1,2,4-oxadiazol-5-yl}-1H-1,2,3-benzotriazole]	< 75	<5	< 75	<6.5
COC(=O)NS(=O)(=O)n1c(=O)oc2cc(-c3nnc(-c4ccccc4OC)o3)ccc21 [Compound 342, methyl N-({6-[5-(2-methoxyphenyl)-1,3,4-oxadiazol-2-yl]-2-oxo-2,3-dihydro-1,3-benzoxazol-3-yl}sulfonyl)carbamate]	< 75	<5	< 75	<6.5
CC(C)n1nnc2cc(-c3noc(C4CCCCC4)n3)ccc21 [Compound 127, 5-(5-cyclohexyl-1,2,4-oxadiazol-3-yl)-1-(propan-2-yl)-1H-1,2,3-benzotriazole]	< 75	<5	< 75	<6.5
CC(C)Nc1ccc(-c2ncc(-c3ccc4c(c3)nnn4C(C)C)cn2)cc1C#N [Compound 596, 5-(5-(1-isopropyl-1H-benzo[d][1,2,3]triazol-5-yl)pyrimidin-2-yl)-2-(isopropylamino)benzonitrile]		>5		>6.5
CC(C)(CO)Cn1nnc2cc(-c3noc(-c4ccccc4Cl)n3)ccc21 [Compound 526, 3-(5-(5-(2-chlorophenyl)-1,2,4-oxadiazol-3-yl)-1H-benzo[d][1,2,3]triazol-1-yl)-2,2-dimethylpropan-1-ol]		<5		<6.5
CC(C)n1nnc2cc(-c3noc(-c4cccc(COc5ccccc5)c4)n3)ccc21 [Compound 23, 3-(1-isopropyl-1H-benzo[d][1,2,3]triazol-5-yl)-5-(3-(phenoxymethyl)phenyl)-1,2,4-oxadiazole]		<5		<6.5
CC(C)Cn1nnc2cc(-c3nc(-c4ccccc4Cl)no3)ccc21 [Compound 289, 5-[3-(2-chlorophenyl)-1,2,4-oxadiazol-5-yl]-1-(2-methylpropyl)-1H-1,2,3-benzotriazole]		<5		<6.5
COc1ccccc1-c1noc(-c2ccc3c(c2)ncn3C(C)C)n1 [Compound 373, 5-(1-isopropyl-1H-benzo[d]imidazol-5-yl)-3-(2-methoxyphenyl)-1,2,4-oxadiazole]		<5		<6.5
Cc1cnc(-c2noc(-c3ccc4c(c3)nnn4C3CCOCC3)n2)cn1 [Compound 6, 5-[3-(5-methylpyrazin-2-yl)-1,2,4-oxadiazol-5-yl]-1-(oxan-4-yl)-1H-1,2,3-benzotriazole]	< 75	<5	< 75	<6.5
Cc1cn(C)nc1-c1noc(-c2ccc3c(c2)nnn3CC(C)(C)O)n1 [Compound 518, 1-{5-[3-(1,4-dimethyl-1H-pyrazol-3-yl)-1,2,4-oxadiazol-5-yl]-1H-1,2,3-benzotriazol-1-yl}-2-methylpropan-2-ol]		<5		<6.5
Cc1ccc(-c2noc(-c3ccc4c(c3)nnn4C(C)C)n2)cn1 [Compound 236, 5-[3-(6-methylpyridin-3-yl)-1,2,4-oxadiazol-5-yl]-1-(propan-2-yl)-1H-1,2,3-benzotriazole]	> 75	<5	< 75	<6.5
N#Cc1cc(-c2nnc(-c3ccc4c(c3)CCC(=O)N4)o2)ccc1NCCF [Compound 476, 2-[(2-fluoroethyl)amino]-5-[5-(2-oxo-1,2,3,4-tetrahydroquinolin-6-yl)-1,3,4-oxadiazol-2-yl]benzonitrile]		>5		>6.5
Cc1ccccc1-c1csc(-c2ccc3c(ccn3C(C)C)n2)n1 [Compound 409, 2-(1-isopropylpyrrolo[3,2-b]pyridin-5-yl)-4-(o-tolyl)thiazole]		<5		<6.5

Further lines, results first:

Emax [1] [%]	hS1P1 B-arrestin2 pEC50 [1]	Emax [2] [%]	hS1P1 cAMP pEC50 [2]	Compound
< 75	<5	< 75	<6.5	COc1cc(-c2noc(-c3ccc4c(c3)nnn4C3CCCC3)n2)ccn1 [Compound 281, 1-cyclopentyl-5-[3-(2-methoxypyridin-4-yl)-1,2,4-oxadiazol-5-yl]-1H-1,2,3-benzotriazole]
< 75	<5	> 75	<6.5	O=C1CC2(CCCC2)Oc2ccc(-c3nc(-c4ccncc4)no3)cc21 [Compound 176, 6-[3-(pyridin-4-yl)-1,2,4-oxadiazol-5-yl]-3,4-dihydrospiro[1-benzopyran-2,1′-cyclopentane]-4-one]
	>5		<6.5	CCC1(CC)CC(=O)c2cc(-c3nc(-c4ccc(C)nc4)no3)ccc2O1 [Compound 550, 2,2-diethyl-6-(3-(6-methylpyridin-3-yl)-1,2,4-oxadiazol-5-yl)chroman-4-one]
	<5		<6.5	COc1cc(NC(C)=O)ccc1-c1noc(-c2ccc3nonc3c2)n1 [Compound 533, N-{4-[5-(2,1,3-benzoxadiazol-5-yl)-1,2,4-oxadiazol-3-yl]-3-methoxyphenyl}acetamide]
> 75	<5	> 75	>6.5	CCC1(CC)CC(=O)c2cc(-c3nsc(-c4cccnc4)n3)ccc2O1 [Compound 137, 2,2-diethyl-6-(5-(pyridin-3-yl)-1,2,4-thiadiazol-3-yl)chroman-4-one]
	>5		>6.5	CCC1(CC)CC(=O)c2cc(-c3nc(-c4cccs4)no3)ccc2N1 [Compound 591, 2,2-diethyl-6-(3-(thiophen-2-yl)-1,2,4-oxadiazol-5-yl)-2,3-dihydroquinolin-4(1H)-one]
> 75	>5	> 75	>6.5	COc1ccccc1-c1nc(-c2ccc3c(c2)nnn3C2CCCC2)no1 [Compound 120, 3-(1-cyclopentyl-1H-benzo[d][1,2,3]triazol-5-yl)-5-(2-methoxyphenyl)-1,2,4-oxadiazole]
	<5		<6.5	CCC1(CC)C/C(=N\O)c2cc(-c3nc(-c4cccnc4)no3)ccc2O1 [Compound 431, N-[(4E)-2,2-diethyl-6-[3-(pyridin-3-yl)-1,2,4-oxadiazol-5-yl]-3,4-dihydro-2H-1-benzopyran-4-ylidene]hydroxylamine]
> 75	>5	> 75	>6.5	CCC1(CC)CC(=O)c2cc(-c3nc(-c4ccc(N)cc4)no3)ccc2O1 [Compound 256, 6-(3-(4-aminophenyl)-1,2,4-oxadiazol-5-yl)-2,2-diethylchroman-4-one]
< 75	<5	< 75	>6.5	CC1(C)CCC2(CC1)CC(=O)c1cc(-c3nc(-c4ccncc4)no3)ccc1O2 [Compound 254, 4′,4′-dimethyl-6-[3-(pyridin-4-yl)-1,2,4-oxadiazol-5-yl]-3,4-dihydrospiro[1-benzopyran-2,1′-cyclohexane]-4-one]
< 75	<5	< 75	<6.5	CCC1(CC)CC(=O)c2cc(-c3nc(-c4ccnc(C(F)(F)F)c4)no3)ccc2O1 [Compound 314, 2,2-diethyl-6-(3-(2-(trifluoromethyl)pyridin-4-yl)-1,2,4-oxadiazol-5-yl)chroman-4-one]
